In patent US11384063B2, “Modulators of estrogen receptor proteolysis and associated methods of use” (Arvinas Operations, Inc., priority 2017, dated 2022):

Legend:
ERα [1] = molecular target: T1, ERα (Homo sapiens, UniProt P03372); assay: ERE luciferase reporter gene assay in T47D-KBluc cells (target engagement); format: cell-based; parameters: T47D human breast cancer cells stably transfected with estrogen responsive element/promoter/luciferase reporter gene; host or cells: T47D-KBluc cells; details: 10% FBS, 24 hours, Table 3 cereblon centric PROTACs, read-out: ER-α Luciferase IC50
T1 sequence (P03372 1-595): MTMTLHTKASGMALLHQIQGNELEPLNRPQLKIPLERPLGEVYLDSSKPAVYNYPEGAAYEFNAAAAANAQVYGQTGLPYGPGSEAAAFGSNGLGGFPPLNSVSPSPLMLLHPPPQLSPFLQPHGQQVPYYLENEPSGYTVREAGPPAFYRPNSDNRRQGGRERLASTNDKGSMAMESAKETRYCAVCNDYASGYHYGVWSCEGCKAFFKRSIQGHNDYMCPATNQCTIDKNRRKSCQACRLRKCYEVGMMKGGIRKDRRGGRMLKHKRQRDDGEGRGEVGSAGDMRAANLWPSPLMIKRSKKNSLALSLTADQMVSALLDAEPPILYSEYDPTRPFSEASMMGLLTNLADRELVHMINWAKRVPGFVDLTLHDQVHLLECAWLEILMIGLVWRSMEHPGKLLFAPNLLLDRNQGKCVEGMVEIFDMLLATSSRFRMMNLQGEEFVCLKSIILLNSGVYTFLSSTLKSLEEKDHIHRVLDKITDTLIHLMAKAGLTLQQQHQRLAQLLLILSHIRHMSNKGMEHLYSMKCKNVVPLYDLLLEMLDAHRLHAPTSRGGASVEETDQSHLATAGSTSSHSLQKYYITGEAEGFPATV
How it was run: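 T47D-KBluc breast cancer cells, which carry a stable ERE-luciferase reporter, were grown in RPMI with 10% FBS (about 10 pM estrogen) and exposed to PROTACs for 24 h. The 12-point, 3-fold series ran from 300 nM to 2 pM. Luciferase was read after lysis, and IC50 was fitted from duplicates.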

ERα [2] = molecular target: T1, ERα; assay: Estrogen receptor-alpha (ERα) degradation assay in MCF7 cells using In-Cell Western assay; format: cell-based; parameters: assessed for their activity in degrading ERα in MCF-7 cells via western blot; endogenous in cells; host or cells: MCF7 cells; details: ER-alpha degradation in MCF7 cells, 5 days of incubation
How it was run: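 MCF7 cells treated 3 or 5 days at 37 °C with 11-point 3-fold dilutions from 1 μM final top. Fixed cells immunostained for ERα and tubulin, read by infrared imaging at 700/800 nm. ERα normalized to tubulin then to DMSO vehicle; DC50 and Dmax from 4-parameter curve fit.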

Row | SMILES | IC50 (ERα [1]) [nM] | DC50 (ERα [2]) [nM] | Dmax (ERα [2]) [%]
1 | O=C1CCC(N2Cc3nc(N4CCN(CC5CCN(c6ccc(Oc7c(-c8ccc(F)cc8)sc8cc(O)ccc78)cc6)CC5)CC4)ccc3C2=O)C(=O)N1 (stereo not drawn) [Compound 230, 3-[2-[4-[[1-[4-[2-(4-fluorophenyl)-6-hydroxy-benzothiophen-3-yl]oxyphenyl]-4-pipendyl]methyl]piperazin-1-yl]-5-oxo-7H-pyrrolo[3,4-b]pyridin-6-yl]piperidine-2,6-dione] | 1.1 | 1 to 10 | > 75
2 | O=C1CCC(N2Cc3cc(N4CCN(CC5CCN(c6ccc(Oc7c(-c8ccc(Br)cc8)sc8cc(O)ccc78)cc6)CC5)CC4)ccc3C2=O)C(=O)N1 (stereo not drawn) [Compound 231, 3-[5-[4-[[1-[4-[2-(4-bromophenyl)-6-hydroxy-benzothiophen-3-yl]oxyphenyl]-4-piperidyl]methyl]piperazin-1-yl]-1-oxo-isoindolin-2-yl]piperidine-2,6-dione] | 7.1 | 1 to 10 | 50 to 75
3 | O=C1CCC(N2Cc3cc(N4CCN(CC5CCN(c6ccc(Oc7c(-c8ccc(F)cc8)sc8cc(O)ccc78)cn6)CC5)CC4)ccc3C2=O)C(=O)N1 (stereo not drawn) [Compound 232, 3-[5-[4-[[1-[5-[2-(4-fluorophenyl)-6-hydroxy-benzothiophen-3-yl]oxy-2-pyridyl]-4-piperidyl]methyl]piperazin-1-yl]-1-oxo-isoindolin-2-yl]piperidine-2,6-dione] | 1.6 | < 1 | > 75
4 | COc1ccc(-c2sc3cc(O)ccc3c2Oc2ccc(N3CCC(CN4CCN(c5ccc6c(c5)CN(C5CCC(=O)NC5=O)C6=O)CC4)CC3)cc2)cc1 (stereo not drawn) [Compound 234, 3-[5-[4-[[1-[4-[6-hydroxy-2-(4-methoxyphenyl)benzothiophen-3-yl]-oxyphenyl]-4-piperidyl]methyl]piperazin-1-yl]-1-oxo-isoindolin-2-yl]piperidine-2,6-dione] | 0.65 | < 1 | 50 to 75
5 | O=C1CCC(N2Cc3nc(N4CCN(CC5CCN(c6ccc(Oc7c(-c8ccc(Br)cc8)sc8cc(O)ccc78)cc6)CC5)CC4)ccc3C2=O)C(=O)N1 (stereo not drawn) [Compound 235, 3-[2-[4-[[1-[4-[2-(4-bromophenyl)-6-hydroxy-benzothiophen-3-yl]oxyphenyl]-4-piperidyl]methyl]piperazin-1-yl]-5-oxo-7H-pyrrolo[3,4-b]pyridin-6-yl]piperidine-2,6-dione] | 6.9 | 1 to 10 | > 75

Now from value to compound:

Row | IC50 (ERα [1]) [nM] | DC50 (ERα [2]) [nM] | Dmax (ERα [2]) [%] | SMILES
6 | 4.9 | 1 to 10 | > 75 | O=C1CCC(N2Cc3cc(N4CCN(CC5CCN(c6ccc(Oc7c(-c8ccc(Br)cc8)sc8cc(O)ccc78)cn6)CC5)CC4)ccc3C2=O)C(=O)N1 (stereo not drawn) [Compound 236, 3-[5-[4-[[1-[5-[2-(4-bromophenyl)-6-hydroxy-benzothiophen-3-yl]oxy-2-pyridyl]-4-piperidyl]methyl]piperazin-1-yl]-1-oxo-isoindolin--2-yl]piperidine-2,6-dione]
7 | 4.9 | 10 to 100 | > 75 | COc1ccc(-c2sc3cc(O)ccc3c2Oc2ccc(N3CCC(CN4CCN(c5ccc6c(c5)C(=O)N(C5CCC(=O)NC5=O)C6=O)CC4)CC3)cc2)cc1 (stereo not drawn) [Compound 237, 2-(2,6-dioxo-3-piperidyl)-5-[4-[[1-[4-[6-hydroxy-2-(4-methoxyphenyl)benzothiophen-3-yl]oxyphenyl]-4-piperidyl]methyl]piperazin-1-yl]isoindoline-1,3-dione]
8 | 10.9 | 10 to 100 | > 75 | O=C1CCC(N2Cc3cc(N4CCN(CC5CCN(c6ccc(Oc7c(-c8ccc(Br)cc8)sc8cc(O)ccc78)cc6F)CC5)CC4)ccc3C2=O)C(=O)N1 (stereo not drawn) [Compound 238, 3-[5-[4-[[1-[4-[2-(4-bromophenyl)-6-hydroxy-benzothiophen-3-yl]oxy-2-fluoro-phenyl]-4-piperidyl]methyl]piperazin-1-yl]-1-oxo-isoindolin-2-yl]piperidine-2,6-dione]
9 | 13.5 | 10 to 100 | > 75 | O=C1CCC(N2Cc3nc(N4CCN(CC5CCN(c6ccc(Oc7c(-c8ccc(Br)cc8)sc8cc(O)ccc78)cc6F)CC5)CC4)ccc3C2=O)C(=O)N1 (stereo not drawn) [Compound 239]
10 | 0.18 | 1 to 10 | 50 to 75 | O=C1CCC(N2Cc3nc(N4CCN(CC5CCN(c6ccc(Oc7c(-c8ccc(O)cc8)sc8cc(O)ccc78)cc6)CC5)CC4)ccc3C2=O)C(=O)N1 (stereo not drawn) [Compound 243, 3-[2-[4-[[1-[4-[6-hydroxy-2-(4-hydroxyphenyl)benzothiophen-3-yl]oxyphenyl]-4-piperidyl]methyl]piperazin-1-yl]-5-oxo-7H-pyrrolo[3,4-b]pyridin-6-yl]piperidine-2,6-dione]
11 | 0.18 | 1 to 10 | 50 to 75 | O=C1CCC(N2Cc3cc(N4CCN(CC5CCN(c6ccc(Oc7c(-c8ccc(O)cc8)sc8cc(O)ccc78)cc6)CC5)CC4)ccc3C2=O)C(=O)N1 (stereo not drawn) [Compound 244, 3-[5-[4-[[1-[4-(6-hydroxy-2-(4-hydroxyphenyl)benzothiophen-3-yl]oxyphenyl]-4-piperidyl]methyl]piperazin-1-yl]-1-oxo-isoindolin-2-yl]piperidine-2,6-dione]
12 | 0.53 | 10 to 100 | 50 to 75 | O=C1CCC(N2C(=O)c3ccc(N4CCN(CC5CCN(c6ccc(Oc7c(-c8ccc(O)cc8)sc8cc(O)ccc78)cc6)CC5)CC4)cc3C2=O)C(=O)N1 (stereo not drawn) [Compound 245, 2-(2,6-dioxo-3-piperidyl)-5-[4-[[1-[4-[6-hydroxy-2-(4-hydroxyphenyl)benzothiophen-3-yl]oxyphenyl]-4-piperidyl]methyl]piperazin-1-yl]isoindoline-1,3-dione]
